For this assay, the system named is P1534 leukemia ip, CD2F1 mice, survival T/C. The assay is described as follows: NCI In Vivo Anticancer Drug Screen. Data for tumor model P1534 Leukemia (intraperitoneal) in CD2F1 (CDF1) mice. The following applies: endpoint: mean survival time, higher = longer survival. As for the experimental part:
The antitumor activity of compounds was measured in mice bearing transplantable tumors. Survival or tumor size were measured and the results are expressed as the measurement made in the treated group (T) divided by the measurement made in the vehicle treated control group (C). The tumor model used in this assay is P1534 Leukemia (intraperitoneal) in CD2F1 (CDF1) mice

The mark [1] stands for this setting: dose: 3.75 mg/kg/injection, schedule: Q01DX010 (ip), vehicle: saline.
Setting [2] is: dose: 7.5 mg/kg/injection, schedule: Q01DX010 (ip), vehicle: saline.
The mark [3] stands for this setting: dose: 15.0 mg/kg/injection, schedule: Q01DX010 (ip), vehicle: saline.
The mark [4] stands for this setting: dose: 30.0 mg/kg/injection, schedule: Q01DX010 (ip), vehicle: saline.
[5] abbreviates: dose: 50.0 mg/kg/injection, schedule: Q01DX010 (ip), vehicle: saline.
Setting [6] is: dose: 100.0 mg/kg/injection, schedule: Q01DX010 (ip), vehicle: saline.
[7] abbreviates: dose: 12.5 mg/kg/injection, schedule: Q01DX010 (sc), vehicle: steriod suspending solution.
Setting [8] is: dose: 25.0 mg/kg/injection, schedule: Q01DX010 (sc), vehicle: steriod suspending solution.
Setting [9] is: dose: 62.5 mg/kg/injection, schedule: Q01DX010 (ip), vehicle: saline.
Where [10] appears, read: dose: 125.0 mg/kg/injection, schedule: Q01DX010 (ip), vehicle: saline.
[11] abbreviates: dose: 250.0 mg/kg/injection, schedule: Q01DX010 (ip), vehicle: saline.
The mark [12] stands for this setting: dose: 500.0 mg/kg/injection, schedule: Q01DX010 (ip), vehicle: saline.
The mark [13] stands for this setting: dose: 100.0 mg/kg/injection, schedule: Q01DX010 (ip), vehicle: water.
[14] abbreviates: dose: 150.0 mg/kg/injection, schedule: Q01DX010 (ip), vehicle: water.
[15] abbreviates: dose: 8.0 mg/kg/injection, schedule: Q01DX010 (ip), vehicle: saline.
[16] abbreviates: dose: 16.0 mg/kg/injection, schedule: Q01DX010 (ip), vehicle: saline.
Where [17] appears, read: dose: 32.0 mg/kg/injection, schedule: Q01DX010 (ip), vehicle: saline.
Setting [18] is: dose: 200.0 mg/kg/injection, schedule: Q01DX010 (ip), vehicle: saline.
Setting [19] is: dose: 400.0 mg/kg/injection, schedule: Q01DX010 (ip), vehicle: saline.
[20] abbreviates: dose: 1.25 mg/kg/injection, schedule: Q01DX010 (ip), vehicle: saline.
The mark [21] stands for this setting: dose: 2.5 mg/kg/injection, schedule: Q01DX010 (ip), vehicle: saline.
The mark [22] stands for this setting: dose: 5.0 mg/kg/injection, schedule: Q01DX010 (ip), vehicle: saline.
Where [23] appears, read: dose: 10.0 mg/kg/injection, schedule: Q01DX010 (ip), vehicle: saline.
[24] abbreviates: dose: 20.0 mg/kg/injection, schedule: Q01DX010 (ip), vehicle: saline.
The mark [25] stands for this setting: dose: 6.25 mg/kg/injection, schedule: Q01DX010 (ip), vehicle: saline.
Setting [26] is: dose: 12.5 mg/kg/injection, schedule: Q01DX010 (ip), vehicle: saline.
[27] abbreviates: dose: 25.0 mg/kg/injection, schedule: Q01DX010 (ip), vehicle: saline.
The mark [28] stands for this setting: dose: 40.0 mg/kg/injection, schedule: Q01DX010 (ip), vehicle: saline.

This note sets out measurements from PubChem BioAssay AID316 (DTP/NCI, 2004).

“And” between values parts separate entries of the source, which are not always exact repeats. Equal values may be shown once. Toxic doses and inconclusive results are not listed.

Consider `CC[C@]12C=CCN3CC[C@@]4(c5ccc(OC)cc5N(C)[C@H]4[C@@](O)(C(=O)OC)[C@@H]1O)[C@@H]32`, for which the T/C is 93 % of control under setting [1]; 100 % of control under setting [2]; 93 % of control under setting [3]; 100 % of control under setting [4]; 96 % of control under setting [5]; 92 % of control under setting [6].
With `C[C@]12C=CC(=O)C=C1CC[C@@H]1[C@@H]2CC[C@]2(C)OC(=O)CC[C@@H]12`, the T/C reads like this: under setting [7], 107 % of control; under setting [8], 107 % of control; (dose: 50.0 mg/kg/injection, schedule: Q01DX010 (sc), vehicle: steriod suspending solution) 107 % of control; (dose: 100.0 mg/kg/injection, schedule: Q01DX010 (sc), vehicle: steriod suspending solution) 100 % of control.
In the case of `CC(=O)Nc1ccc(/C=N/Nc2ccc([N+](=O)[O-])cn2)cc1`, the T/C reads like this: under setting [9], 100 % of control; under setting [10], 100 % of control; under setting [11], 96 % of control.
For `Nc1nncs1`, under setting [2], the T/C was 114 % of control.
For `CCOC(N)=O`, the T/C is 100 % of control under setting [10]; 112 % of control and 100 % of control under setting [11]; 112 % of control and 100 % of control under setting [12]; 88 % of control and 93 % of control (dose: 1000.0 mg/kg/injection, schedule: Q01DX010 (ip), vehicle: saline).
Take `N=[N+]=CC(=O)OCC(N)C(=O)O` (stereo not given): the T/C is, setting by setting: (dose: 6.25 mg/kg/injection, schedule: Q01DX010 (ip), vehicle: other) 155 % of control; (dose: 15.5 mg/kg/injection, schedule: Q01DX010 (ip), vehicle: saline) 119 % of control.
For the compound `CC(=O)NC1=C(N2CC2)C(=O)C(NC(C)=O)=C(N2CC2)C1=O`, the T/C was 107 % of control (dose: 31.3 micrograms/kg/injection, schedule: Q01DX010 (ip), vehicle: saline) and 110 % of control (dose: 62.5 micrograms/kg/injection, schedule: Q01DX010 (ip), vehicle: saline).
As for `Cc1[nH]ncc1Br`, the T/C under setting [13] was 95 % of control and the T/C under setting [14] was 98 % of control.
As for `CN1CC[C@]23c4c5ccc(O)c4O[C@H]2C(=O)CC[C@H]3[C@H]1C5`, the T/C is 100 % of control (dose: 4.0 mg/kg/injection, schedule: Q01DX010 (ip), vehicle: saline); 100 % of control under setting [15]; 107 % of control and 100 % of control under setting [16]; 103 % of control under setting [17].
With `O=C(Nc1ccc(C2=NCCN2)cc1)c1ccc(C(=O)Nc2ccc(C3=NCCN3)cc2)cc1`, the T/C was 104 % of control under setting [15]; 100 % of control under setting [16]; 104 % of control and 100 % of control under setting [17]; 104 % of control and 100 % of control (dose: 64.0 mg/kg/injection, schedule: Q01DX010 (ip), vehicle: saline).
With `[N-]=[N+]=CC(=O)NCC(=O)NN`, the T/C runs as follows: under setting [13], 103 % of control; (dose: 200.0 mg/kg/injection, schedule: Q01DX010 (ip), vehicle: water) 120 % of control; (dose: 300.0 mg/kg/injection, schedule: Q01DX010 (ip), vehicle: water) 123 % of control.
Regarding `CC(=O)c1ccc[nH]1`, the T/C is 100 % of control under setting [9] and 96 % of control under setting [10].
As for `CN(CC(=O)NCCCCCCCCCCNC(=O)CN(C)C(=O)OCc1ccccc1)C(=O)OCc1ccccc1`, the T/C reads like this: under setting [5], 96 % of control; under setting [6], 96 % of control; under setting [18], 96 % of control; under setting [19], 96 % of control.
Turning to `CCC12CC(C(=O)OC)=C3Nc4cc(OC)ccc4C34CCN(CC3OC31)C42` (stereo not given), the T/C by setting is: under setting [1], 96 % of control; under setting [2], 100 % of control; under setting [3], 90 % of control; under setting [4], 96 % of control.
As to `Nc1nc(=S)c2ncn(C3OC(CO)C(O)C3O)c2[nH]1` (stereo not given), the T/C runs as follows: (dose: 0.31 mg/kg/injection, schedule: Q01DX010 (ip), vehicle: saline) 103 % of control; (dose: 0.63 mg/kg/injection, schedule: Q01DX010 (ip), vehicle: saline) 103 % of control; under setting [20], 106 % of control.
As for `COC(=O)C1C(O)CCC2CN3CCc4c([nH]c5ccccc45)C3CC21` (stereo not given), the T/C under setting [21] was 100 % of control, the T/C under setting [22] is 100 % of control, the T/C under setting [23] was 100 % of control and the T/C under setting [24] was 96 % of control.
On to `O=c1cn[nH]c(=O)[nH]1`, for which the T/C was 94 % of control and 100 % of control under setting [9]; 100 % of control under setting [10]; 94 % of control and 100 % of control under setting [11]; 105 % of control and 111 % of control under setting [12].
In the case of `C[C@]12C=CC(=O)C=C1CC[C@@H]1[C@@H]2[C@@H](O)C[C@@]2(C)[C@H]1CC[C@]2(O)C(=O)CO`, the T/C under setting [7] is 103 % of control; the T/C under setting [8] is 106 % of control and 110 % of control.
On to `CC[C@@H](c1ccc(O)cc1)[C@@H](CC)c1ccc(O)cc1`, for which the T/C is, setting by setting: (dose: 25.0 mg/kg/injection, schedule: Q01DX010 (sc), vehicle: water) 100 % of control; (dose: 50.0 mg/kg/injection, schedule: Q01DX010 (sc), vehicle: water) 92 % of control; (dose: 100.0 mg/kg/injection, schedule: Q01DX010 (sc), vehicle: water) 92 % of control; (dose: 200.0 mg/kg/injection, schedule: Q01DX010 (sc), vehicle: water) 92 % of control.
Consider `O=NN(CCCl)C(=O)NCCCl`, for which the T/C reads like this: under setting [25], 265 % of control and 290 % of control; under setting [26], 150 % of control and 170 % of control.
On to `NCCCC(N)C(=O)NCCCCCCNCCCCCCNC(=O)C(N)CCCN` (stereo not given), for which the T/C under setting [26] was 100 % of control, the T/C under setting [27] was 92 % of control, the T/C under setting [5] is 100 % of control and the T/C under setting [6] was 96 % of control.
On to `CS(=O)(=O)OCCCCOS(C)(=O)=O`, for which the T/C reads like this: under setting [25], 106 % of control and 88 % of control; under setting [26], 88 % of control and 100 % of control; under setting [27], 112 % of control and 88 % of control; under setting [5], 112 % of control and 100 % of control.
As to `O=C(O)c1cc(C(=O)O)[nH]n1`, the T/C is 103 % of control under setting [13] and 103 % of control under setting [14].
Take `CC[n+]1c(-c2ccccc2)c2cc(N)ccc2c2ccc(N)cc21`: the T/C under setting [20] was 117 % of control, the T/C under setting [21] is 117 % of control and the T/C under setting [23] is 150 % of control.
On to `NC(N)=NCCCC(N)C(=O)NCCCCCCNC(=O)C(N)CCCN=C(N)N` (stereo not given), for which the T/C was 100 % of control under setting [27], 96 % of control under setting [5], 100 % of control under setting [6] and 100 % of control under setting [18].
For `c1ccc2ncccc2c1`, the T/C under setting [27] is 100 % of control, the T/C under setting [5] was 100 % of control and the T/C under setting [6] was 96 % of control.
In the case of `OCC1OC(n2cnc3c(=S)nc[nH]c32)C(O)C1O` (stereo not given), the T/C reads like this: under setting [24], 111 % of control; under setting [28], 111 % of control and 122 % of control.
For `Cc1cc(N(CCCl)CCCl)ccc1C=Nc1ccccc1-c1ccccc1`, the T/C under setting [27] was 100 % of control, the T/C under setting [5] was 100 % of control and the T/C under setting [6] was 100 % of control.
Take `O=C1C(=O)N(CN2CCCCC2)c2ccccc21`: the T/C is, setting by setting: under setting [5], 100 % of control; under setting [6], 100 % of control; under setting [18], 96 % of control; under setting [19], 100 % of control.
As to `CN(C)CC(=O)NCCCCCCCCCCNC(=O)CN(C)C`, the T/C runs as follows: under setting [6], 100 % of control; under setting [18], 100 % of control; under setting [19], 107 % of control.
As for `C[C@@H]1C[C@@H]([C@H](O)CC2CC(=O)NC(=O)C2)C(=O)[C@@H](C)C1`, the T/C runs as follows: under setting [22], 112 % of control and 100 % of control; under setting [23], 111 % of control and 112 % of control; under setting [24], 111 % of control; under setting [28], 105 % of control.
Take `C1CCNC1`: the T/C reads like this: (dose: 1.56 mg/kg/injection, schedule: Q01DX010 (ip), vehicle: saline) 113 % of control; (dose: 3.13 mg/kg/injection, schedule: Q01DX010 (ip), vehicle: saline) 103 % of control; under setting [25], 100 % of control; under setting [26], 103 % of control and 96 % of control; under setting [27], 86 % of control.
